Assay results from patent US20110045101A1, “FUNGICIDAL SUBSTITUTED AZOLES” (E.I. Du Pont De Nemours and Company, priority 2009, published 2011).
Marks after values point to notes of the source that are not given here.

What was measured:
Assay type in all cases: in vivo
Details in all cases: 100 = 100% disease control
[1] = system: Puccinia recondita f. sp. tritici; test: Test I: wheat leaf rust on wheat seedlings, sprayed the day before inoculation, visual disease rating
Outline: (§1)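 Compounds were dissolved in acetone (3% of final volume), then suspended in 50/50 acetone/purified water with 250 ppm Trem® 014 surfactant. Suspensions at 200 ppm (some at 40 ppm) were sprayed to run-off, 200 ppm being equivalent to 500 g/ha.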

[2] = system: Puccinia recondita f. sp. tritici; test: Test H: wheat leaf rust, test suspension sprayed after inoculation of wheat seedlings, visual disease rating
Outline: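 Wheat seedlings inoculated with P. recondita spores, held 24 h saturated at 20 °C, then 2 days in growth chamber at 20 °C; compound suspension (acetone/water with Trem 014) sprayed to run-off afterwards. Rated visually; 200 ppm (≈500 g/ha) unless marked *, which denotes 40 ppm.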

Botrytis cinerea = test: Test C: tomato Botrytis on tomato seedlings, sprayed the day before inoculation, visual disease rating
Outline: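 Compounds were dissolved in acetone (3% of final volume), then suspended in 50/50 acetone/purified water containing 250 ppm polyhydric alcohol ester surfactant. Suspensions were sprayed to run-off on tomato seedlings at 200 ppm, equivalent to 500 g/ha, or at 40 ppm where marked.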

Alternaria solani = test: Test D: tomato early blight, sprayed the day before inoculation, visual disease rating
Outline: as §1

Septoria tritici = test: Test G: wheat leaf blotch on wheat seedlings, sprayed the day before inoculation, visual disease rating
Outline: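 Visual disease ratings taken 19 days after transfer to a 20° C growth chamber, following 48 h in saturated atmosphere at 24° C. Seedlings had been sprayed to run-off one day before spore inoculation. Dose 200 ppm, or 40 ppm where starred.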

Septoria nodorum = test: Test F: wheat glume blotch on wheat seedlings, sprayed the day before inoculation, visual disease rating
Outline: as §1

[3] = system: Erysiphe graminis f. sp. tritici; test: Test J: wheat powdery mildew on wheat seedlings, sprayed the day before inoculation, visual disease rating
Outline: as §1

[4] = 200 ppm, 0 = no control relative to controls
[5] = 40 ppm (marked *), 0 = no control

SMILES	Test I disease control rating [1, 4] [%]	Test H disease control rating [2, 4] [%]	Test C disease control rating (Botrytis cinerea; [4]) [%]	Test D disease control rating (Alternaria solani; [4]) [%]	Test G disease control rating (Septoria tritici; [4]) [%]	Test F disease control rating (Septoria nodorum; [4]) [%]	Test J disease control rating [3, 4] [%]	further results
COc1ccc(F)c(-c2c(Cl)nc(C)n2-c2ccc(C#N)cc2)c1F [compound 615]	99	0	100	100	100	0	100	–
Cc1nc(Cl)c(-c2c(F)cc(F)cc2F)n1-c1cccc(OC(F)F)c1 [compound 609]	100	100	99	100	99	100	100	–
Fc1cccc(F)c1-c1c(Cl)nc(Br)n1-c1ccc2ncccc2c1 [compound 327]	–	–	–	–	–	–	–	Test I disease control rating [1, 5]: 86* %; Test H disease control rating [2, 5]: 0* %; Test C disease control rating (Botrytis cinerea; [5]): 99* %; Test D disease control rating (Alternaria solani; [5]): 98* %; Test G disease control rating (Septoria tritici; [5]): 94* %; Test F disease control rating (Septoria nodorum; [5]): 0* %; Test J disease control rating [3, 5]: 0* %
COc1cc(F)c(-c2c(Cl)nc(C)n2Cc2ccc(C)nc2)c(F)c1 [compound 671]	78	17	99	100	95	92	0	–
COc1cc(F)c(-c2c(Br)nnn2-c2ccc(Cl)cc2)c(F)c1 [compound 627]	95	40	99	99	99	0	98	–
COc1ccc(F)c(-c2c(Br)nc(Br)n2-c2ccc(F)cc2)c1F [Compound 504, 2,4-dibromo-5-(2,6-difluoro-3-methoxyphenyl)-1-(4-fluorophenyl)-1H-imidazole]	–	–	–	–	–	–	–	pest or weed control at 200 ppm ([1]; Puccinia recondita, 168 h, 200 ppm, 0 = no control relative to controls): 99%; pest or weed control at 200 ppm ([2]; Puccinia recondita, 96 h, 200 ppm, 0 = no control relative to controls): 0%; pest or weed control at 200 ppm (Botrytis cinerea; Botrytis cinerea, 120 h, 200 ppm, 0 = no control relative to controls): 99%; pest or weed control at 200 ppm (Alternaria solani; Alternaria solani, 168 h, 200 ppm, 0 = no control relative to controls): 100%; pest or weed control at 200 ppm (Septoria tritici; Zymoseptoria tritici, 504 h, 200 ppm, 0 = no control relative to controls): 97%; pest or weed control at 200 ppm (Septoria nodorum; Parastagonospora nodorum, 264 h, 200 ppm, 0 = no control relative to controls): 100%; pest or weed control at 200 ppm ([3]; Blumeria graminis, 168 h, 200 ppm, 0 = no control relative to controls): 100%
N#Cc1ccc(F)c(-c2cnc(Cl)n2-c2ccc(Cl)nc2)c1F [compound 697]	19	8	100	91	98	0	93	–
Cc1nc(Cl)n(-c2ccc(Cl)c(F)c2)c1-c1ccnc(F)c1 [compound 323]	100	70	100	99	100	0	99	–
COc1cc(F)c(-c2c(Cl)nc(Cl)n2-c2cncc(F)c2)c(F)c1 [compound 728]	100	100	100	100	99	100	100	–
COc1ccc(-c2c(Cl)nc(Cl)n2-c2ccc(Cl)c(F)c2)cn1 [compound 434]	68	0	96	9	99	0	76	–
Fc1cc(F)c(-c2c(Cl)nc(Br)n2-c2cccc(OC(F)(F)F)c2)c(F)c1 [compound 605]	0	0	19	0	73	0	94	–
Cc1nc(Cl)n(-c2ccc(Cl)c(F)c2)c1-c1ccnc(Br)c1 [compound 354]	98	0	100	99	93	0	97	–
COc1cc(F)c(-c2c(Cl)nc(Br)n2-c2ccccc2)c(F)c1Br [compound 429]	98	0	99	77	99	0	98	–
Cc1ncn(-c2ccc(Cl)c(F)c2)c1-c1ccnc(F)c1 [compound 319]	28	6	99	24	98	0	81	–
COc1ccc(F)c(-c2c(Cl)nc(Cl)n2-c2ccc(C#N)cc2)c1F [compound 552]	46	0	99	100	96	0	98	–
COc1cc(F)c(-c2c(Cl)ncn2-c2ccccc2)c(F)c1 [compound 420]	100	0	100	100	100	99	100	–
Cc1ncn(-c2ccc(Cl)c(F)c2)c1-c1scnc1Cl [compound 376]	54	0	90	0	78	0	67	–
COc1cc(F)c(-c2c(Cl)nc(C)n2-c2ccc(OC)nc2)c(F)c1 [compound 714]	100	100	100	100	99	100	100	–
Fc1cccc(F)c1-c1c(Cl)nc(Cl)n1-c1ccc(Cl)nc1 [compound 592]	100	100	100	100	96	100	100	–
COc1ccc(F)c(-c2c(Cl)nc(C)n2-c2ccc(Cl)nc2)c1F [compound 738]	100	96	100	100	100	100	100	–
Fc1cc(-n2c(Cl)nc(Br)c2-c2c(F)ccc(F)c2F)ccc1Cl [compound 350]	99	0	99	100	91	82	100	–
N#Cc1ccc(F)c(-c2c(Cl)nc(Cl)n2-c2ccc(F)cc2)c1F [compound 679]	100	18	100	100	99	99	100	–
Cc1cccc(-c2c(CCl)nc(Cl)n2-c2ccc(Cl)c(F)c2)n1 [compound 379]	27	0	99	0	86	0	0	–
